Experimental data published in ChEMBL document CHEMBL3745699, “Structural insights into mechanisms for inhibiting amyloid β42 aggregation by non-catechol-type flavonoids” (Bioorg Med Chem, 2016).
Active and inactive are the calls of the source. The rule behind the calls is not given here.

Tests used:
[1] = Drug level treated with kaempferol after 4 hrs by LC/Q Tof-MS/MS analysis; assay type: physicochemical
[2] = target: Amyloid-beta precursor protein (Homo sapiens) (UniProt P05067); experiment: Inhibition of nucleation phase of HFIP-treated 15N-labelled wild type Amyloid beta (1 to 42) (unknown origin) assessed as time required for nucleation at 50 uM by Thioflavin-T fluorescence assay in presence of fibril seed
[3] = target: Amyloid-beta precursor protein (Homo sapiens) (UniProt P05067); experiment: Inhibition of wild type amyloid beta (1 to 42) (unknown origin) aggregation at 50 uM by Thioflavin-T fluorescence assay
[4] = target: Amyloid-beta precursor protein (Homo sapiens) (UniProt P05067); experiment: Inhibition of wild type Amyloid beta (1 to 42) (unknown origin) aggregation at 50 uM under ambient condition by Thioflavin-T fluorescence assay
[5] = target: Amyloid-beta precursor protein (Homo sapiens) (UniProt P05067); experiment: Inhibition of wild type Amyloid beta (1 to 42) (unknown origin) aggregation at 50 to 100 uM under anaerobic condition after 5 days by Thioflavin-T fluorescence assay
[6] = target: Amyloid-beta precursor protein (Homo sapiens) (UniProt P05067); experiment: Inhibition of Amyloid beta (1 to 42) 13,14 A2 mutant (unknown origin) aggregation at 50 uM by Thioflavin-T fluorescence assay
[7] = Stability of the compound assessed as compound remaining after 48 hrs by HPLC analysis; assay type: physicochemical; settings: read-out: Stability
[8] = target: Amyloid-beta precursor protein (Homo sapiens) (UniProt P05067); experiment: Inhibition of elongation phase of HFIP-treated 15N-labelled wild type Amyloid beta (1 to 42) (unknown origin) at 50 uM by Thioflavin-T fluorescence assay in presence of fibril seed
[9] = Drug degradation assessed as autoxidation at 500 uM at 4 degC after 4 hrs by UV-visible spectrophotometric analysis in presence of wild type Amyloid beta (1 to 42) (unknown origin); assay type: physicochemical
[10] = Drug degradation assessed as autoxidation at 50 uM under argon atmosphere at 37 degC after 2 to 48 hrs by UV-visible spectrophotometric analysis in presence of wild type Amyloid beta (1 to 42) (unknown origin); assay type: physicochemical
[11] = target: Amyloid-beta precursor protein (Homo sapiens) (UniProt P05067); settings: 50 uM
Description: Inhibition of wild type Amyloid beta (1 to 42) (unknown origin) aggregation at 50 uM after 48 hrs by TEM analysis

[12] = Drug degradation assessed as autoxidation at 500 uM at 4 degC after 1 hr by UV-visible spectrophotometric analysis in presence of wild type Amyloid beta (1 to 42) (unknown origin) relative to morin and datiscetin; assay type: physicochemical; settings: read-out: Drug degradation
[13] = Drug degradation after 48 hrs by HPLC analysis; assay type: physicochemical; settings: read-out: Drug degradation
[14] = Drug metabolism assessed as 2,4,6-trihydroxybenzaldehyde formation after 4 hrs by LC/Q Tof-MS/MS analysis; assay type: physicochemical
[15] = Drug degradation assessed as autoxidation at 50 uM at 37 degC after 2 to 48 hrs by UV-visible spectrophotometric analysis in presence of wild type Amyloid beta (1 to 42) (unknown origin); assay type: physicochemical
[16] = target: Amyloid-beta precursor protein (Homo sapiens) (UniProt P05067); settings: 500 uM
Description: Inhibition of elongation phase of HFIP-treated 15N-labelled wild type Amyloid beta (1 to 42) (unknown origin) at 500 uM by Thioflavin-T fluorescence assay in presence of fibril seed

Chain of Amyloid-beta precursor protein (Homo sapiens) (P05067 whole entry): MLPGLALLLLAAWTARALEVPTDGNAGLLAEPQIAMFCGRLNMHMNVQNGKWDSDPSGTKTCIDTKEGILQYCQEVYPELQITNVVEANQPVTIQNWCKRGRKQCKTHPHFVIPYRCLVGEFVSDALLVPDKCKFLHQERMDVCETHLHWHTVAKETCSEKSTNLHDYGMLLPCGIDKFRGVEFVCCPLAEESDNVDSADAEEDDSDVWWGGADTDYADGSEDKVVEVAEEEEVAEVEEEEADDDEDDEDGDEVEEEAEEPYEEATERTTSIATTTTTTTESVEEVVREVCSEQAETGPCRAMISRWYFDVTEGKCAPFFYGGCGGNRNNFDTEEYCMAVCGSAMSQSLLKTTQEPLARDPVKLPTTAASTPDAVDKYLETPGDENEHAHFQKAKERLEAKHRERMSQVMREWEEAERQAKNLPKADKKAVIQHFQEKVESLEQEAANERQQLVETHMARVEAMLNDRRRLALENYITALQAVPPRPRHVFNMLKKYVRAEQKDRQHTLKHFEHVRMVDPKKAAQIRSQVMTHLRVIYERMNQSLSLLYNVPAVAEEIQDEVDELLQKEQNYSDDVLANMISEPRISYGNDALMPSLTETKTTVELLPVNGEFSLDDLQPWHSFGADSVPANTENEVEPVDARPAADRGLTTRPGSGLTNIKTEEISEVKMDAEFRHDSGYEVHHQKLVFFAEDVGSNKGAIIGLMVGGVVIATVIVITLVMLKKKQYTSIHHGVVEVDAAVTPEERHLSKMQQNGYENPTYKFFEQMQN

| Drug metabolism [1] | TIME [2] | inhibition [3] | Structure (SMILES) | further results |
| --- | --- | --- | --- | --- |
| metabolite_detected | 3 h | Active | O=C(O)C(=O)c1ccc(O)cc1 |  |
| metabolite_detected | 3 h | Active | O=C1Oc2cc(O)cc(O)c2C1=O |  |
| metabolite_detected | 3 h | Active | O=C(O)C(=O)c1c(O)cc(O)cc1O |  |
| metabolite_detected | 3 h | Active | O=C(O)c1c(O)cc(O)cc1O |  |
| metabolite_detected | 3 h | Active | O=C1C(=O)C(O)(c2ccc(O)cc2)Oc2cc(O)cc(O)c21 (stereo not drawn) |  |
| metabolite_detected | 3 h | Active | O=c1cc(-c2ccc(O)cc2)oc2cc(O)cc(O)c12 [APIGENIN] |  |
|  | 6 h |  | O=c1c(O)c(-c2ccccc2O)oc2cc(O)cc(O)c12 [DATISCETIN] | inhibition [4]: Active; inhibition [5]: Active; inhibition [6]: Active; remaining at 48 h [7]: > 80%; inhibition [8]: Active; Stability [9]: Stable; Stability [10]: Stable; inhibition [11]: Active |
|  | 3 h |  | O=c1c(O)c(-c2ccc(O)cc2)oc2cc(O)cc(O)c12 [KAEMPFEROL] | inhibition [4]: Active; inhibition [5]: Active; degraded at 1 h, 500 µM [12]: 70%; degraded at 48 h [13]: > 80%; Drug metabolism [14]: metabolite_detected; Stability [15]: Unstable; Stability [10]: Stable; inhibition [16]: Active |
|  | 10 h |  | O=c1c(O)c(-c2ccc(O)cc2O)oc2cc(O)cc(O)c12 [MORIN] | inhibition [4]: Active; inhibition [5]: Active; inhibition [6]: Active; remaining at 48 h [7]: > 80%; inhibition [8]: Active; Stability [9]: Stable; Stability [10]: Stable |
| metabolite_detected | 3 h | Active | O=C(O)c1ccc(O)cc1 [PARABEN] |  |
| metabolite_detected | 3 h | Active | O=Cc1c(O)cc(O)cc1O [PHLOROGLUCINALDEHYDE] |  |

| Structure (SMILES) | Drug metabolism [1] | TIME [2] | inhibition [3] | further results |
| --- | --- | --- | --- | --- |
| O=c1c(OOc2c(-c3ccc(O)cc3)oc3cc(O)cc(O)c3c2=O)c(-c2ccc(O)cc2)oc2cc(O)cc(O)c12 | metabolite_detected | 3 h | Active |  |
